Entries after “also recorded” stand apart in the source; their conditions may differ.
What was measured:
SARS-CoV-2 3CL^pro [1] = target: T1, SARS-CoV-2 3CL^pro (Severe acute respiratory syndrome coronavirus 2, UniProt P0DTD1); type: biochemical
[2] = Phase I metabolic stability in human liver microsomes
SARS-CoV-2 3CL^pro [3] = target: T1, SARS-CoV-2 3CL^pro; type: biochemical; remark: listed apart in the source
[4] = Gastrointestinal stability in simulated gastric fluid; type: in vitro ADME; conditions: 20 μM, 37 °C, in 90 min
[5] = Phase II metabolic stability; conditions: human liver microsomes, in the presence of UDPGA
[6] = Plasma stability in human plasma; type: in vitro ADME; conditions: 37 °C, up to 12 h

Compound	inhibitory activity against SARS-CoV-2 3CLpro, in words (SARS-CoV-2 3CL^pro [1])	further results
CC(=O)OCC1Cc2c(-c3ccccn3)ccc(C)c2-c2c(O)ccc(C)c21 (stereo not shown) [Compound A8]	significant loss of potency	–
COc1ccc(-c2ccccn2)c2c1-c1c(O)ccc(C)c1C(COC(C)=O)C2 (stereo not shown) [Compound A9]	significant loss of potency	–
CC(=O)OCC1Cc2c(-c3ccccn3)ccc(F)c2-c2c(O)ccc(C)c21 (stereo not shown) [Compound A10]	significant loss of potency	–
CC(=O)OCC1Cc2c(-c3ccccn3)ccc(Br)c2-c2c(O)ccc(C)c21 (stereo not shown) [Compound A12]	significant loss of potency	–
CC(=O)OCC1Cc2c(-c3ncccc3C)cccc2-c2c(O)ccc(C)c21 (stereo not shown) [Compound A15]	comparable inhibitory activities with A1	–
CC(=O)OCC1Cc2c(-c3cc(C)ccn3)cccc2-c2c(O)ccc(C)c21 (stereo not shown) [Compound A16]	comparable inhibitory activities with A1	–
CC(=O)OCC1Cc2c(-c3ccc(F)cn3)cccc2-c2c(O)ccc(C)c21 (stereo not shown) [Compound A18]	comparable inhibitory activities with A1	–
CC(=O)OCC1Cc2c(-c3ccc(Cl)cn3)cccc2-c2c(O)ccc(C)c21 (stereo not shown) [Compound A19]	increased inhibitory activities	–
CC(=O)OCC1Cc2c(-c3ccc(Br)cn3)cccc2-c2c(O)ccc(C)c21 (stereo not shown) [Compound A20]	increased inhibitory activities	–
CC(=O)OCC1Cc2c(cccc2-c2nccc3ccccc23)-c2c(O)ccc(C)c21 (stereo not shown) [Compound A21]	increased inhibitory activities	–
CC(=O)OCC1Cc2c(-c3cc4ccccc4cn3)cccc2-c2c(O)ccc(C)c21 (stereo not shown) [Compound A22]	increased inhibitory activities	–
CC(=O)OCC1Cc2c(-c3ccc4ccccc4n3)cccc2-c2c(O)ccc(C)c21 (stereo not shown) [Compound A23]	increased inhibitory activities	–
CC(=O)OCC1Cc2c(-c3ncccn3)cccc2-c2c(O)ccc(C)c21 (stereo not shown) [Compound A24]	no inhibitory activity	–
CC(=O)OCC1Cc2c(-c3ccncn3)cccc2-c2c(O)ccc(C)c21 (stereo not shown) [Compound A25]	no inhibitory activity	–
CC(=O)OCC1Cc2c(cccc2-n2cccn2)-c2c(O)ccc(C)c21 (stereo not shown) [Compound A26]	no inhibitory activity	–
CC(=O)OCC1Cc2c(cccc2-c2ncnc3c2ncn3CC2CC2)-c2c(O)ccc(C)c21 (stereo not shown) [Compound A27]	no inhibitory activity	–
C=CCn1cnc2c(-c3cccc4c3CC(COC(C)=O)c3c(C)ccc(O)c3-4)ncnc21 (stereo not shown) [Compound A28]	no inhibitory activity	–
OCC1Cc2c(-c3cc(-c4ccccc4)ccn3)cccc2-c2c(O)ccc(-c3ccc(Br)cc3)c21 (stereo not shown) [Compound C1, 1-(4-bromophenyl)-10-(hydroxymethyl)-8-(4-phenylpyridin-2-yl)-9,10-dihydrophenanthren-4-ol]	–	metabolism by human cytochrome P450 enzymes (hCYPs), in words [2]: hardly metabolized; Inhibition mode (SARS-CoV-2 3CL^pro [3]): Mixed; inhibition manner (SARS-CoV-2 3CL^pro [3]): mixed-inhibition; inhibitory effects against CYPs (major CYPs in HLMs): moderate inhibitory effects; gastrointestinal stability in SGF and SIF [4]: good gastrointestinal stabilities; metabolism by human hepatic UDP-glucuronosyltransferases (hUGTs), in words [5]: hardly metabolized; plasma stability, in words [6]: prominent; also recorded: excellent plasma stability
O=Cc1ccnc(-c2cccc3c2CC(CO)c2c(-c4ccc(Br)cc4)ccc(O)c2-3)c1 (stereo not shown) [Compound C2, 2-(8-(4-bromophenyl)-5-hydroxy-9-(hydroxymethyl)-9,10-dihydrophenanthren-1-yl)isonicotinaldehyde]	–	metabolism by human cytochrome P450 enzymes (hCYPs), in words [2]: readily metabolized; Inhibition mode (SARS-CoV-2 3CL^pro [3]): Mixed; inhibition manner (SARS-CoV-2 3CL^pro [3]): mixed-inhibition; gastrointestinal stability in SGF and SIF [4]: good gastrointestinal stabilities; metabolism by human hepatic UDP-glucuronosyltransferases (hUGTs), in words [5]: moderately metabolized
OCC1Cc2c(-c3ccc(F)cn3)cccc2-c2c(O)ccc(-c3ccc(Br)cc3)c21 (stereo not shown) [Compound C4, 1-(4-bromophenyl)-8-(5-fluoropyridin-2-yl)-10-(hydroxymethyl)-9,10-dihydrophenanthren-4-ol]	slight decreases in the inhibitory activity	–
OCC1Cc2c(-c3ccc(Cl)cn3)cccc2-c2c(O)ccc(-c3ccc(Br)cc3)c21 (stereo not shown) [Compound C5, 1-(4-bromophenyl)-8-(5-chloropyridin-2-yl)-10-(hydroxymethyl)-9,10-dihydrophenanthren-4-ol]	slight decreases in the inhibitory activity	–

From PMC8634693 (European Journal of Medicinal Chemistry, 2021)
